Results from patent US10668081B2, “Prostamide-containing intraocular implant” (Allergan, Inc., priority 2013, dated 2020).

Assays:
[1] = test system: intraocular pressure in dogs; experiment: IOP reduction after topical administration to normotensive dogs; format: in vivo, dog; conditions: topical 25 μL, 6 hours after administration
Source text: (§1) A series of prostamides were selected as potential candidates for an intracameral biodegradable drug delivery system (e.g., an implant) and tested for their ability to lower IOP by direct administration to the aqueous humor (therefore, by intracameral administration). Table 1 lists the EC50 values (nM) obtained from the feline (cat) iris assay, calculated log P values (clog P), and IOP reduction values obtained after either topical or intracameral administration for different prostamides. Intracameral drug administration was accomplished by placing an infusion pump in the subcutaneous pocket in the neck of dogs with a cannula running into the anterior chamber of the eye. Test runs were carried out to measure and compare the concentration of the compound in the solution exiting the pump with that initially added to the pump in order to confirm the dosing level.

[2] = test system: intraocular pressure in dogs; experiment: IOP reduction after intracameral administration by infusion pump in dogs; format: in vivo, dog; conditions: for Intracameral Administration (dogs) Max IOP reduction: infusion pump into anterior chamber, 2-3 weeks, vs baseline
Source text: as §1

[3] = target: Prostamide/FP receptor (Felis catus, UniProt A0ABI7XJ69); experiment: Cat iris sphincter assay (contraction of isolated feline iris sphincter muscle); format: cell-based
Sequence of Prostamide/FP receptor (A0ABI7XJ69 entry or part of it): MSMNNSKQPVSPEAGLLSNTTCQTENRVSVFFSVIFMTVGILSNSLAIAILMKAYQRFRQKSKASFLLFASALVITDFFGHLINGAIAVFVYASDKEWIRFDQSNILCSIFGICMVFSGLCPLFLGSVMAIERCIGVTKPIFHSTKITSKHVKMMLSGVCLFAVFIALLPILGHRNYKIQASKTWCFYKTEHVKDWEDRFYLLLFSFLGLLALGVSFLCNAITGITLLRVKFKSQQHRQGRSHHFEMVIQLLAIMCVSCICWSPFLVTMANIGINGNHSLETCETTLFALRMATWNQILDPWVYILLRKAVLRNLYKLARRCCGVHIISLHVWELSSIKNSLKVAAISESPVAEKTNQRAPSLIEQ

For `CCNC(=O)CCC/C=C\C[C@@H]1[C@@H](/C=C/[C@@H](O)CCc2ccccc2)[C@H](O)C[C@@H]1O` [Compound 3, Bimatoprost], the “Topical Administration (dogs) IOP reduction” value ([1]; concentration 0.01% (w/v)) was −3.6 mm Hg and the “Intracameral Administration (dogs) Max IOP reduction” value ([2]; dose 108 ng/day) was roughly 45%.
In the case of `CCNC(=O)CCC/C=C\C[C@@H]1[C@@H](/C=C/[C@@H](O)CCc2cc(Br)c(C)s2)[C@H](O)C[C@@H]1O` [Compound 4], the EC50 [3] is reported as 25 nM, the “Topical Administration (dogs) IOP reduction” value ([1]; concentration 0.03% (w/v)) is reported as −3 mm Hg and the “Intracameral Administration (dogs) Max IOP reduction” value ([2]; dose 15 ng/day) is reported as less than 10%.
In the case of `CCCCC[C@@H](/C=C/[C@@H]1[C@@H](C/C=C\CCCC(N)=O)[C@@H](O)C[C@H]1O)OC` [Compound 5], the “Topical Administration (dogs) IOP reduction” value ([1]; concentration 0.01% (w/v)) is reported as −3 to −4 mm Hg and the “Intracameral Administration (dogs) Max IOP reduction” value ([2]; dose 100 ng/day) is reported as roughly 20%.
In the case of `NC(=O)CCC/C=C\C[C@@H]1[C@@H](/C=C/[C@@H](O)CCc2cc(Cl)sc2Cl)[C@H](O)C[C@@H]1O` [Compound 1], the “Topical Administration (dogs) IOP reduction” value ([1]; concentration 0.03% (w/v)) is reported as −5 mm Hg, the “Intracameral Administration (dogs) Max IOP reduction” value ([2]; dose 15 ng/day) is reported as roughly 35% and the “IOP reduction when administered intracamerally, compared with bimatoprost (in words)” value ([2]; normotensive dog eye, directly to the anterior chamber) is reported as “reduces IOP effectively and much more efficiently than bimatoprost”.
